Laboratory results from patent US20240400555A1 (Initial Therapeutics, Inc., priority 2023, published 2024).

System: MV-4-11 cells
Experiment: Cell Viability Assay in MV-4-11 Cells
Assay type: cell-based
Conditions: Homo sapiens, MV4-11, 72 h
How it was run: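 Luminescent ATP read-out (CellTiter-Glo) after 72 h compound treatment of MV-4-11 leukaemia cells (7,000 per well, IMDM plus 10% FBS). Values expressed relative to DMSO control and derived by four-parameter non-linear regression.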

SMILES	IC50 [µM]
Cc1csc2ccnc(N(C(=O)c3ccc(-c4nnn5c4COCC5)cc3F)[C@@H]3CCCNC3)c12 [Example 635, (R)-4-(6,7-dihydro-4H-[1,2,3]triazolo[5,1-c][1,4]oxazin-3-yl)-2-fluoro-N-(3-methylthieno[3,2-c]pyridin-4-yl)-N-(piperidin-3-yl)benzamide]	0.1

Same assay, conditions: Homo sapiens, MV4-11, 72 h, MV-4-11 cells, 72 h, Cell-Titer Glo; read-out: IC50

SMILES	IC50 [µM]
Cn1cc(-c2ccc(C(=O)N(c3nccc4cccc(CCc5cccnc5)c34)[C@@H]3CCCNC3)cc2)nn1 [Example 403, 4-(1-methyltriazol-4-yl)-N-[(3R)-3-piperidyl]-N-[8-[2-(3-pyridyl)ethyl]-1-isoquinolyl]benzamide]	2.1
O=C(c1ccc(-n2nnc3cccnc32)cc1F)N(c1nccc2sc(-c3cnccn3)cc12)[C@@H]1CCCNC1 [Example 451, 2-fluoro-N-[(3R)-3-piperidyl]-N-(2-pyrazin-2-ylthieno[3,2-c]pyridin-4-yl)-4-(triazolo[4,5-b]pyridin-3-yl)benzamide]	0.25
Cc1cccc2ccnc(N(C(=O)c3ccc(Nc4nccc(NCc5ccccn5)n4)cc3F)[C@@H]3CCCNC3)c12 [Example 695, (R)-2-fluoro-N-(8-methylisoquinolin-1-yl)-N-(piperidin-3-yl)-4-((4-((pyridin-2-ylmethyl)amino)pyrimidin-2-yl)amino)benzamide]	0.13
Cn1cc(-c2ccc(C(=O)N(c3nccc4sc(-c5ccc(C(O)C(F)(F)F)cc5)cc34)[C@@H]3CCCNC3)c(F)c2)nn1 (stereo partly drawn) [Example 605, 2-fluoro-4-(1-methyl-1H-1,2,3-triazol-4-yl)-N—((R)-piperidin-3-yl)-N-(2-(4-(2,2,2-trifluoro-1-hydroxyethyl)phenyl)thieno[3,2-c]pyridin-4-yl)benzamide]	0.47
Cc1ncc(-c2cc3c(N(C(=O)c4ccc(-n5nnc6cccnc65)cc4F)[C@@H]4CCCNC4)nccc3s2)s1 [Example 443, 2-fluoro-N-[2-(2-methylthiazol-5-yl)thieno[3,2-c]pyridin-4-yl]-N-[(3R)-3-piperidyl]-4-(triazolo[4,5-b]pyridin-3-yl)benzamide]	0.3
CN(C)C(=O)c1ccc(-c2cc3c(N(C(=O)c4ccc(-c5cn(C)nn5)cc4F)[C@@H]4CCCNC4)nccc3s2)cc1 [Example 528, (R)—N-(2-(4-(dimethylcarbamoyl)phenyl)thieno[3,2-c]pyridin-4-yl)-2-fluoro-4-(1-methyl-1H-1,2,3-triazol-4-yl)-N-(piperidin-3-yl)benzamide]	0.87
Cc1cccc2ccnc(N(C(=O)c3ccc(-c4cn(C)nn4)cc3F)[C@H]3CNCC[C@@H]3C)c12 [Example 441, 2-fluoro-N-(8-methyl-1-isoquinolyl)-N-[(3R, 4S)-4-methyl-3-piperidyl]-4-(1-methyltriazol-4-yl) benzamide]	0.12
Cc1cccnc1N(C(=O)c1ccc(Nc2ncccn2)cc1)[C@@H]1CCCNC1 [Example 924, (R)—N-(3-methylpyridin-2-yl)-N-(piperidin-3-yl)-4-(pyrimidin-2-ylamino)benzamide]	0.085
Cc1cccc2ccnc(N(C(=O)c3ccc(Nc4nccc(N5CCOC[C@H]5CO)n4)cc3F)[C@@H]3CCCNC3)c12 [Example 942, 2-fluoro-4-((4-((R)-3-(hydroxymethyl)morpholino)pyrimidin-2-yl)amino)-N-(8-methylisoquinolin-1-yl)-N—((R)-piperidin-3-yl)benzamide]	0.088
C=C(C)c1csc2ccnc(N(C(=O)c3ccc(-c4nnc(C)s4)cc3F)[C@@H]3CCCNC3)c12 [Example 651, 2-fluoro-N-(3-isopropenylthieno[3,2-c]686yridine-4-yl)-4-(5-methyl-1,3,4-thiadiazol-2-yl)-N-[(3R)-3-piperidyl]benzamide]	0.46
Cn1cc(-c2ccc(C(=O)N(c3nccc4sc(-c5cccc(N)c5)cc34)[C@@H]3CCCNC3)c(F)c2)nn1 [Example 509, N-[2-(3-aminophenyl)thieno[3,2-c]pyridin-4-yl]-2-fluoro-4-(1-methyltriazol-4-yl)-N-[(3R)-3-piperidyl]benzamidezamide]	0.52
Cc1nnc(-c2ccc(C(=O)N(c3nccc4scc(C)c34)[C@@H]3CCCNC3)c(F)c2)o1 [Example 699, (R)-2-fluoro-4-(5-methyl-1,3,4-oxadiazol-2-yl)-N-(3-methylthieno[3,2-c]pyridin-4-yl)-N-(piperidin-3-yl)benzamide]	0.13
Cn1cc(-c2ccc(C(=O)N(c3nccc4sc(-c5ccc6c(c5)C(=O)NC6)cc34)[C@@H]3CCCNC3)c(F)c2)nn1 [Example 533, 2-fluoro-4-(1-methyltriazol-4-yl)-N-[2-(3-oxoisoindolin-5-yl)thieno[3,2-c]pyridin-4-yl]-N-[(3R)-3-piperidyl]benzamide]	0.91
Cc1cccc2ccnc(N(C(=O)c3ccc(Nc4ncccn4)c(Cl)c3)[C@@H]3CCCNC3)c12 [Example 847, (R)-3-chloro-N-(8-methylisoquinolin-1-yl)-N-(piperidin-3-yl)-4-(pyrimidin-2-ylamino)benzamide]	2
Cn1cc(-c2ccc(C(=O)N(c3nccc4sc(-c5ccc(C(=O)NCCO)cc5)cc34)[C@@H]3CCCNC3)c(F)c2)nn1 [Example 524]	> 10
O=C(c1ccc(-n2nnc3cccnc32)cc1F)N(c1nccc2sc(-c3ccc(C(F)(F)F)nc3)cc12)[C@@H]1CCCNC1 [Example 454, 2-fluoro-N-[(3R)-3-piperidyl]-4-(triazolo[4,5-b]pyridin-3-yl)-N-[2-[6-(trifluoromethyl)-3-pyridyl]thieno[3,2-c]pyridin-4-yl]benzamide]	1
O=C(c1ccc(-n2nnc3cccnc32)cc1F)N(c1nccc2sc(-c3ccccn3)cc12)[C@@H]1CCCNC1 [Example 365, 2-fluoro-N-[(3R)-3-piperidyl]-N-[2-(2-pyridyl)thieno[3,2-c]pyridin-4-yl]-4-(triazolo[4,5-b]pyridin-3-yl)benzamide]	0.48

Next, values leading:

IC50 [µM]	SMILES
0.17	Cc1cc(-c2ccc(C(=O)N(c3nccc4scc(C)c34)[C@@H]3CCCNC3)nc2)on1 [Example 797, (R)-5-(3-methylisoxazol-5-yl)-N-(3-methylthieno[3,2-c]pyridin-4-yl)-N-(piperidin-3-yl)picolinamide]
0.044	[2H]C([2H])([2H])n1cc(-c2ccc(C(=O)N(c3nccc4cc(F)cc(C)c34)[C@@H]3CCCNC3)c(F)c2)nn1 [Example 891, 2-fluoro-N-(6-fluoro-8-methyl-1-isoquinolyl)-N-[(3R)-3-piperidyl]-4-[1-(trideuteriomethyl)triazol-4-yl]benzamide]
0.069	Cc1nnc(-c2ccc(C(=O)N(c3nccc4cc(Cl)cc(C)c34)[C@@H]3CCCNC3)c(F)c2)s1 [Example 815, (R)—N-(6-chloro-8-methylisoquinolin-1-yl)-2-fluoro-4-(5-methyl-1,3,4-thiadiazol-2-yl)-N-(piperidin-3-yl)benzamide]
0.087	Cc1nnc(-c2ccc(C(=O)N(c3nccc4cc(Cl)cc(C)c34)[C@@H]3CCCNC3)cc2)s1 [Example 755, (R)—N-(6-chloro-8-methylisoquinolin-1-yl)-4-(5-methyl-1,3,4-thiadiazol-2-yl)-N-(piperidin-3-yl)benzamide]
0.19	COCCCc1ccnc(Nc2ccc(C(=O)N(c3nccc4cccc(C)c34)[C@@H]3CCCNC3)c(F)c2)n1 [Example 752, (R)-2-fluoro-4-((4-(3-methoxypropyl)pyrimidin-2-yl)amino)-N-(8-methylisoquinolin-1-yl)-N-(piperidin-3-yl)benzamide]
0.17	Cc1nnc(-c2ccc(C(=O)N(c3nccc4cccc(C)c34)[C@@H]3CCCNC3)cn2)s1 [Example 622, (R)-6-(5-methyl-1,3,4-thiadiazol-2-yl)-N-(8-methylisoquinolin-1-yl)-N-(piperidin-3-yl)nicotinamide]
0.038	COc1cc(C)c2c(N(C(=O)c3ccc(-c4cn(C)nn4)cc3F)[C@@H]3CCCNC3)nccc2c1 [Example 619, (R)-2-fluoro-N-(6-methoxy-8-methylisoquinolin-1-yl)-4-(1-methyl-1H-1,2,3-triazol-4-yl)-N-(piperidin-3-yl)benzamide]
0.069	COCCNc1ccnc(Nc2ccc(C(=O)N(c3nccc4cccc(C)c34)[C@@H]3CCCNC3)c(F)c2)n1 [Example 744, (R)-2-fluoro-4-((4-((2-methoxyethyl)amino)pyrimidin-2-yl)amino)-N-(8-methylisoquinolin-1-yl)-N-(piperidin-3-yl)benzamide]
> 6.2	Cc1cccc2ccnc(N(C(=O)c3ccc(Nc4nccc(O)n4)cc3F)[C@@H]3CCCNC3)c12 [Example 735, (R)-2-fluoro-4-((4-hydroxypyrimidin-2-yl)amino)-N-(8-methylisoquinolin-1-yl)-N-(piperidin-3-yl)benzamide]
0.12	COC/C=C(\Cl)c1ccnc(Nc2ccc(C(=O)N(c3nccc4cccc(C)c34)[C@@H]3CCCNC3)c(F)c2)n1 [Example 731, (R)-4-((4-(1-chloro-3-methoxyprop-1-en-1-yl)pyrimidin-2-yl)amino)-2-fluoro-N-(8-methylisoquinolin-1-yl)-N-(piperidin-3-yl)benzamide]
0.038	Cc1cc(Cl)cc2ccnc(N(C(=O)c3ccc(-c4cn(C)nn4)cc3)[C@@H]3CCCNC3)c12 [Example 802, (R)—N-(6-chloro-8-methylisoquinolin-1-yl)-4-(1-methyl-1H-1,2,3-triazol-4-yl)-N-(piperidin-3-yl)benzamide]
0.12	Cc1csc2ccnc(N(C(=O)c3ccc(-c4nnn(C)c4C)cc3F)[C@@H]3CCCNC3)c12 [Example 782, (R)-4-(1,5-dimethyl-1H-1,2,3-triazol-4-yl)-2-fluoro-N-(3-methylthieno[3,2-c]pyridin-4-yl)-N-(piperidin-3-yl)benzamide]
> 6.5	COCCn1nc(C)cc1-c1ccc(C(=O)N(c2nccc3cc(F)cc(C)c23)[C@@H]2CCCNC2)nc1 [Example 729, (R)—N-(6-fluoro-8-methylisoquinolin-1-yl)-5-(1-(2-methoxyethyl)-3-methyl-1H-pyrazol-5-yl)-N-(piperidin-3-yl)picolinamide]
